Test results published in patent US9617273B2, “Fused tetra or penta-cyclic dihydrodiazepinocarbazolones as PARP inhibitors” (BEIGENE, LTD., priority 2011, dated 2017).
pEC50: −log10 of the molar value.

System: PARP PARylation in HeLa cells
Assay: PARylation assay in HeLa cells
Format: cell-based
Conditions: H2O2-provoked DNA damage

For “10-(2-hydroxyethyl)-2,2-dimethyl-2,3,5,10-tetrahydro-[1,2]diazepino[3,4,5,6-def]carbazol-6(1H)-one [Compound 67]”, the pEC50 was 6.61.
